Results as given in patent publication US8524746B2, “Dosage regimen for COMT inhibitors” (Bial-Portela & Ca., S.A., priority 2007, dated 2013).
Read-outs that look alike come from different tables or passages of the source.

Key:
[1] = Brain levels of L-DOPA and its derivatives in rats treated with L-DOPA plus benserazide; assay type: in vivo, rat; details: 3 mg/kg oral
liver COMT = details: rat, 3 mg/kg oral; for inhibition of liver COMT activity nine hours after administration: 9 h
Method: Livers from 60 day old male Wistar rats weighing 240-260 g (Harlan-Interfauna Ibérica, Barcelona, Spain), kept two per cage under controlled environmental conditions (12 h light/dark cycle and room temperature 24° C.) were used in all experiments. After decapitation, the organs were immediately removed and homogenised in 5 mM phosphate buffer of pH 7.8. COMT activity was evaluated by the ability to methylate adrenaline to metanephrine. […] The preincubation and incubation were carried out at 37° C. under conditions of light protection with continuous shaking and without oxygenation.
In experiments designed to evaluate the oral bioavailability of test substances, compounds were given by gastric tube to overnight fasted rats. Thereafter, at defined intervals, animals were killed by decapitation and livers removed and used to determine COMT activity as described above. At the end of the incubation period (5 min) the tubes were transferred to ice and the reaction was stopped by the addition of 200 μl of 2 M perchloric acid. The samples were then centrifuged (200×g, 4 min, 4° C.), and 500 μl aliquots of the supernatant, filtered on 0.22 μm pore size Spin-X filter tubes (Costar) were used for the assay of metanephrine. The assay of metanephrine was carried out by means of high pressure liquid chromatography with electrochemical detection. The lower limits for detection of metanephrine ranged from 350 to 500 fmol (0.5 to 1.0 μmol/mg protein/h).

[2] = 3 mg/kg oral
[3] = L-DOPA plus benserazide, inhibitor given 24 h in advance
[4] = L-DOPA 12 mg/kg plus benserazide 3 mg/kg, all pre-treatment times (1, 7 and 24 h)

Cc1ccc(C(=O)c2cc(O)c(O)c([N+](=O)[O-])c2)cc1 [tolcapone, 3,4-dihydroxy-4′-methyl-5-nitrobenzophenone]
brain L-DOPA ([1]; L-DOPA plus benserazide, 2 and 7 h after administration): Significant changes | brain 3-O-methyl-L-DOPA [1, 3]: not affected | brain DOPAC [1, 3]: not affected | brain L-DOPA [1, 3]: not affected | brain dopamine [1, 3]: not affected | time to maximal inhibitory effect on liver COMT (liver COMT): ≤ 30 min | inhibition of liver COMT activity nine hours after administration (liver COMT): minimal inhibitory effects | inhibition of liver COMT activity 24 hours after administration (liver COMT): almost devoid of COMT inhibitory properties | plasma 3-O-methyl-L-DOPA [2, 3]: not affected | plasma L-DOPA [2, 3]: not affected

Cc1c(Cl)c(C)[n+]([O-])c(Cl)c1-c1noc(-c2cc(O)c(O)c([N+](=O)[O-])c2)n1 [Compound A, 5-[3-(2,5-dichloro-4,6-dimethyl-1-oxy-pyridin-3-yl)-[1,2,4]oxadiazol-5-yl]-3-nitrobenzene-1,2-diol]
brain 3-O-methyl-L-DOPA [1, 4]: marked decrease | brain DOPAC [1, 4]: significant increases | brain L-DOPA [1, 4]: significant increases | brain dopamine [1, 4]: significant increases | time to maximal inhibitory effect on liver COMT (liver COMT): ≤ 60 min | inhibition of liver COMT activity nine hours after administration (liver COMT): 90 % of control levels | inhibition of liver COMT activity 24 hours after administration (liver COMT): 60 % of controls levels | circulating (plasma) 3-O-methyl-L-DOPA [2, 4]: marked decrease | plasma L-DOPA [2, 4]: significant increases
